Patent US20220202799A1, “PHARMACEUTICAL FORMULATIONS CONTAINING P2Y14 ANTAGONISTS” (priority 2019, published 2022)
Several values for one entry are separate records, joined by “and”; a condition that tells them apart may be missing. Equal values may be shown once.

Test: Effect of pH on solubility of PPTN in aqueous medium
Type: physicochemical
Method: The effect of pH on the solubility of PPTN in an aqueous medium was analyzed. Solutions of PPTN in either water or phosphate buffer at various pH values were incubated with agitation for 24-48 hours at room temperature then filtered to remove precipitates, and the PPTN concentration of the filtered solution was analyzed.

SMILES: Cl.O=C(O)c1cc(-c2ccc(C3CCNCC3)cc2)c2ccc(-c3ccc(C(F)(F)F)cc3)cc2c1 [KB-1801.HCl]
- [KB-1801.HCl] by HPLC Analysis (solubility) (pH 1.9, 10 mM phosphate buffer, 24-48 h, ~22° C.): 0.0008 mg/mL and 1.6 μM
- [KB-1801.HCl] by HPLC Analysis (solubility) (pH 2.8, 10 mM phosphate buffer, 24-48 h, ~22° C.): 0.0255 mg/mL and 50 μM
- [KB-1801.HCl] by HPLC Analysis (solubility) (pH 4.8, 0 mM buffer (DIW), >24 h, ~25° C. (from initial sonication)): ~0.1 mg/mL and 195 μM
- [KB-1801.HCl] by HPLC Analysis (solubility) (pH 6.6, 10 mM phosphate buffer, 24-48 h, ~22° C.): 0.0001 mg/mL and 0.2 μM
- [KB-1801.HCl] by HPLC Analysis (solubility) (pH 8.2, 10 mM phosphate buffer, 24-48 h, ~22° C.): 0.0001 mg/mL and 0.2 μM
